The values below come from patent publication US11261186B2, “Biaryl derivative as GPR120 agonist” (LG CHEM, LTD., priority 2014, dated 2022).

For this assay, the target named is T1, hGPR120 (Homo sapiens, UniProt Q5NUL3).
T1 construct: expressed in transfected cells; host or cells: CHO-K1
T1 sequence (Q5NUL3 1-361): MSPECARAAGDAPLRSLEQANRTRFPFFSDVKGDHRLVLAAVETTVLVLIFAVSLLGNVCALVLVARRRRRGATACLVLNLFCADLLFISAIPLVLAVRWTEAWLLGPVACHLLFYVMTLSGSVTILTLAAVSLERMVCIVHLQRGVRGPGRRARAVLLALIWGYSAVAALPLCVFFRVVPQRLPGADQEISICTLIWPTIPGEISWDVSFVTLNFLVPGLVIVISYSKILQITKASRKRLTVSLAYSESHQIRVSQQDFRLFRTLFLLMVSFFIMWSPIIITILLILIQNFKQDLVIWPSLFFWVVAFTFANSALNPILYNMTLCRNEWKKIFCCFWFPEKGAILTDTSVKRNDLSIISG
Description: Measurement of Activity of GPR120 Agonist (Cell-Based Assay), Calcium 5 dye fluorescence. The note with it: CHO-K1 cells expressing Ga16 and hGPR120. The gist of the method:
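Agonist-evoked calcium signal, expressed as percent relative to DMSO-only wells, read at 485/525 nm after serial-dilution addition (0.5% DMSO final). Cells were hGPR120/Gα16 CHO-K1, seeded 18 h earlier and dye-loaded for 1 h at 37°C.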

Some results are limits rather than exact numbers.

One may read the EC50 as the concentration giving half of the maximal effect.

Consider `O=C(O)CCC1CCc2cc(-c3cccnc3SC3CCC3)ccc2S1` (stereo not shown) [Example 275, 3-[6-(2-cyclobutylsulfanyl-pyridin-3-yl)-thiochroman-2-yl]-propionic acid], for which the EC50 is under 200 nM.
As for `O=C(O)CCC1CCc2cc(-c3cccnc3OCC3CC3)ccc2O1` (stereo not shown) [Example 276, 3-[6-(2-cyclopropylmethoxy-pyridin-3-yl)-chroman-2-yl]-propionic acid], the EC50 was 200 to 2000 nM.
For the compound `O=C(O)CCC1CCc2cc(-c3cccnc3OC3CCC3)ccc2O1` (stereo not shown) [Example 277, 3-[6-(2-cyclobutoxy-pyridin-3-yl)-chroman-2-yl]-propionic acid], the half-maximal effective concentration (EC50) lay within 200 to 2000 nM.
As to `O=C(O)CCC1CCc2cc(-c3cccnc3OC3CCC3)ccc2S1` (stereo not shown) [Example 278, 3-[6-(2-cyclobutoxy-pyridin-3-yl)-thiochroman-2-yl]-propionic acid], the EC50 is under 200 nM.
For the compound `O=C(O)CCC1CCc2cc(-c3cccnc3OCC3CC3)ccc2S1` (stereo not shown) [Example 279, 3-[6-(2-cyclopropylmethoxy-pyridin-3-yl)-thiochroman-2-yl]-propionic acid], the EC50 was under 200 nM.
Regarding `O=C(O)CCC1CCc2cc(-c3cccnc3SC3CCCC3)ccc2O1` (stereo not shown) [Example 280, 3-[6-(2-cyclopentylsulfanyl-pyridin-3-yl)-chroman-2-yl]-propionic acid], the EC50 is under 200 nM.
With `O=C(O)CCC1CCc2cc(-c3cccnc3SC3CCCC3)ccc2S1` (stereo not shown) [Example 281, 3-[6-(2-cyclopentylsulfanyl-pyridin-3-yl)-thiochroman-2-yl]-propionic acid] the figure was under 200 nM.
With `CC1(C)Cc2cc(Cl)cc(-c3ccc4c(c3)CCC(CCC(=O)O)S4)c2O1` (stereo not shown) [Example 282, 3-[6-(5-chloro-2,2-dimethyl-2,3-dihydro-benzofuran-7-yl)-thiochroman-2-yl]-propionic acid] the figure was 200 to 2000 nM; with `O=C(O)CCC1CCc2cc(-c3cccc4c3OC3(CCCC3)C4)ccc2S1` (stereo not shown) [Example 283, 3-(6-spiro[3H-benzofuran-2,1′-cyclopentan]-7-yl-thiochroman-2-yl)-propionic acid], 200 to 2000 nM.
Next, `O=C(O)CCC1CCc2cc(-c3cccnc3OC3CCOCC3)ccc2S1` (stereo not shown) [Example 284, 3-{6-[2-(tetrahydro-pyran-4-yloxy)-pyridin-3-yl]-thiochroman-2-yl}-propionic acid]: 200 to 2000 nM; `COc1ccc(-c2cc(F)c(N3CC(CC(=O)O)C3)c(F)c2)c2c1OC(C)(C)C2` [Example 285, {1-[2,6-difluoro-4-(7-methoxy-2,2-dimethyl-2,3-dihydro-benzofuran-4-yl)-phenyl]-azetidin-3-yl}-acetic acid]: 2000 to 20000 nM; `CC(C)Sc1cccc(-c2ccc3c(c2)CCC(CCC(=O)O)S3)n1` (stereo not shown) [Example 286, 3-[6-(6-isopropylsulfanyl-pyridin-2-yl)-thiochroman-2-yl]-propionic acid]: under 200 nM.
As to `O=C(O)CCCOc1c(F)cc(-c2cccc3c2OC2(CCCC2)O3)cc1F` [Example 287, 4-(2,6-difluoro-4-spiro[1,3-benzodioxol-2,1′-cyclopentan]-4-yl-phenoxy)butanoic acid], the EC50 was under 200 nM.
With `O=C(O)CCCOc1ccc(-c2cccc3c2OC2(CCCC2)O3)cc1` [Example 288, 4-(4-spiro[1,3-benzodioxol-2,1′-cyclopentan]-4-ylphenoxy)butanoic acid], the EC50 was under 200 nM.
As for `O=C(O)CCCOc1ccc(-c2cccc3c2OC2(CCCC2)O3)cc1F` [Example 289, 4-(2-fluoro-4-spiro[1,3-benzodioxol-2,1′-cyclopentan]-4-yl-phenoxy)butanoic acid], the EC50 is 200 to 2000 nM.
As to `O=C(O)CCCOc1c(F)cc(-c2cccc3c2OC(F)(F)O3)cc1F` [Example 290, 4-[4-(2,2-difluoro-benzo[1,3]dioxol-4-yl)-2,6-difluoro-phenoxy]-butyric acid], the EC50 was under 200 nM.
Next, `CC1(C)Cc2c(cccc2-c2cc(F)c(OCCCC(=O)O)c(F)c2)O1` [Example 291, 4-[4-(2,2-dimethyl-2,3-dihydro-benzofuran-4-yl)-2,6-difluoro-phenoxy]-butyric acid]: under 200 nM; `O=C(O)CCCOc1c(F)cc(-c2cccnc2SC2CCCCC2)cc1F` [Example 292, 4-[4-(2-cyclohexylsulfanyl-pyridin-3-yl)-2,6-difluoro-phenoxy]-butyric acid]: 2000 to 20000 nM; `O=C(O)CCSCc1ccc(-c2cccnc2OC2CCCC2)cc1` [Example 293, 3-[4-(2-cyclopentyloxy-pyridin-3-yl)-benzylsulfanyl]-propionic acid]: 200 to 2000 nM.
Next, `O=C(O)CC1CCN(c2c(F)cc(-c3cccc(OC4CCC4)n3)cc2F)CC1` [Example 294, 2-[1-[4-[6-(cyclobutoxy)-2-pyridyl]-2,6-difluoro-phenyl]-4-piperidyl]acetic acid]: under 200 nM; `CCCOc1cccc(-c2cc(F)c(N3CCC(CC(=O)O)CC3)c(F)c2)n1` [Example 295, 2-[1-[2,6-difluoro-4-(6-propoxy-2-pyridyl)phenyl]-4-piperidyl]acetic acid]: under 200 nM; `CC(C)Oc1cccc(-c2cc(F)c(N3CCC(CC(=O)O)CC3)c(F)c2)n1` [Example 296, 2-[1-[2,6-difluoro-4-(6-isopropoxy-2-pyridyl)phenyl]-4-piperidyl]acetic acid]: under 200 nM.
With `O=C(O)CC1CCN(c2c(F)cc(-c3cccc(SC4CCC4)n3)cc2F)CC1` [Example 297, 2-[1-[4-(6-cyclobutylsulfanyl-2-pyridyl)-2,6-difluoro-phenyl]-4-piperidyl]acetic acid], the EC50 lay in the range of 200 to 2000 nM.
Turning to `CCCSc1cccc(-c2cc(F)c(N3CCC(CC(=O)O)CC3)c(F)c2)n1` [Example 298, 2-[1-[2,6-difluoro-4-(6-propylsulfanyl-2-pyridyl)phenyl]-4-piperidyl]acetic acid], the EC50 lay in the range of 200 to 2000 nM.
For `O=C(O)CC1CCN(c2c(F)cc(-c3cccc(OC4CCCC4)n3)cc2F)CC1` [Example 299, 2-[1-[4-[6-(cyclopentoxy)-2-pyridyl]-2,6-difluoro-phenyl]-4-piperidyl]acetic acid], the EC50 lay in the range of 200 to 2000 nM.
With `O=C(O)CC1CCN(c2c(F)cc(-c3cccc(OC4CCC4)c3)cc2F)CC1` [Example 300, 2-[1-[4-[3-(cyclobutoxy)phenyl]-2,6-difluoro-phenyl]-4-piperidyl]acetic acid], the EC50 is 200 to 2000 nM.
Regarding `O=C(O)CC1CCN(c2c(F)cc(-c3cccc(OCC4CC4)c3)cc2F)CC1` [Example 301, 2-[1-[4-[3-(cyclopropylmethoxy)phenyl]-2,6-difluoro-phenyl]-4-piperidyl]acetic acid], the EC50 is 200 to 2000 nM.
For `CC(C)OCc1cccc(-c2cc(F)c(N3CCC(CC(=O)O)CC3)c(F)c2)c1` [Example 302, 2-[1-[2,6-difluoro-4-[3-(isopropoxymethyl)phenyl]phenyl]-4-piperidyl]acetic acid], the EC50 was 200 to 2000 nM.
For `CCOCc1cccc(-c2cc(F)c(N3CCC(CC(=O)O)CC3)c(F)c2)c1` [Example 303, 2-[1-[4-[3-(ethoxymethyl)phenyl]-2,6-difluoro-phenyl]-4-piperidyl]acetic acid], the EC50 fell in the range of 200 to 2000 nM.
With `O=C(O)CC1CCN(c2c(F)cc(-c3ccc(F)c(OC4CCC4)c3)cc2F)CC1` [Example 304, 2-[1-[4-[3-(cyclobutoxy)-4-fluoro-phenyl]-2,6-difluoro-phenyl]-4-piperidyl]acetic acid] the figure was 200 to 2000 nM; with `COc1ccc(-c2cc(F)c(N3CCC(CC(=O)O)CC3)c(F)c2)cc1OC1CCC1` [Example 305, 2-[1-[4-[3-(cyclobutoxy)-4-methoxy-phenyl]-2,6-difluoro-phenyl]-4-piperidyl]acetic acid], 200 to 2000 nM.
Next, `O=C(O)CC1CCN(c2c(F)cc(-c3cc(F)cc(OC4CCC4)c3)cc2F)CC1` [Example 306, 2-[1-[4-[3-(cyclobutoxy)-5-fluoro-phenyl]-2,6-difluoro-phenyl]-4-piperidyl]acetic acid]: 200 to 2000 nM.
`O=C(O)CC1CCN(c2c(F)cc(-c3cccc(OCC4CC4)n3)cc2Cl)CC1` [Example 307, 2-[1-[2-chloro-4-[6-(cyclopropylmethoxy)-2-pyridyl]-6-fluoro-phenyl]-4-piperidyl]acetic acid]: the EC50 lay within 200 to 2000 nM.
Take `O=C(O)CC1CCN(c2c(F)cc(-c3cccc(OCC4CCC4)n3)cc2F)CC1` [Example 308, 2-[1-[4-[6-(cyclobutylmethoxy)-2-pyridyl]-2,6-difluoro-phenyl]-4-piperidyl]acetic acid]: the EC50 lay in the range of 200 to 2000 nM.
As to `CC(C)(C)Oc1cccc(-c2cc(F)c(N3CCC(CC(=O)O)CC3)c(F)c2)n1` [Example 309, 2-[1-[4-(6-tert-butoxy-2-pyridyl)-2,6-difluoro-phenyl]-4-piperidyl]acetic acid], the EC50 lay in the range of 200 to 2000 nM.
With `Cc1c(OC2CCC2)cccc1-c1cc(F)c(N2CCC(CC(=O)O)CC2)c(F)c1` [Example 310, 2-[1-[4-[3-(cyclobutoxy)-2-methyl-phenyl]-2,6-difluoro-phenyl]-4-piperidyl]acetic acid] the figure was 2000 to 20000 nM; with `O=C(O)CC1CCN(c2c(F)cc(-c3ccc(Cl)c(OC4CCC4)n3)cc2F)CC1` [Example 311, 2-[1-[4-[5-chloro-6-(cyclobutoxy)-2-pyridyl]-2,6-difluoro-phenyl]-4-piperidyl]acetic acid], 200 to 2000 nM.
